Experimental data as given in patent US20120252865A1, “CARBAMATE DERIVATIVES IN PARTICULAR FOR THE TREATMENT OF NEUROLOGICAL DISORDERS” (SIGMA-TAU INDUSTRIE FARMACEUTICHE RIUNITE S.P.A., priority 2009, published 2012).

Tests used:
[1] = target: T1, fatty acid amide hydrolase (FAAH, EC 3.5.1.4) (Mus musculus, UniProt O08914); assay: FAAH assay: release of [1-14C]AA from [1-14C]AnNH by RP-HPLC; assay type: biochemical; conditions: mouse brain homogenate; for IC50: 37° C., 15 min, pH 9.0; for Ki: Lineweaver-Burk analysis
T1 construct: The reaction was initiated by the addition of mouse brain homogenate (40 μg); from tissue; host or cells: mouse brain homogenate
T1 sequence (O08914 1-579): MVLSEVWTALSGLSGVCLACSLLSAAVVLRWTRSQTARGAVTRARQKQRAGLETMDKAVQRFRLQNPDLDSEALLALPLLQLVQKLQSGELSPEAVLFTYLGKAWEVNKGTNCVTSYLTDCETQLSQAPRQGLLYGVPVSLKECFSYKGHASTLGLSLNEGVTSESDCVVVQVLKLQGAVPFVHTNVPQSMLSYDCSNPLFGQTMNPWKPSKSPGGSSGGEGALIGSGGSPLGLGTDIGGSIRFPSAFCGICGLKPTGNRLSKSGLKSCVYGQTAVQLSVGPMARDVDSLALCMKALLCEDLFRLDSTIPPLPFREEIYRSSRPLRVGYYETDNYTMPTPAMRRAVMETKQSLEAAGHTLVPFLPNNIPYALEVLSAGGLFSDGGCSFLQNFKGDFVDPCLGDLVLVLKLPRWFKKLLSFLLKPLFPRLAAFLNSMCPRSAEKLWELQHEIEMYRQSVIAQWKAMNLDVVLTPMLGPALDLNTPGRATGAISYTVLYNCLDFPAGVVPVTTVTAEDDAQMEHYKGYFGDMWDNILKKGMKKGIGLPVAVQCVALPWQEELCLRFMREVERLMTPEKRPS
Method: The compounds of the present invention show affinity and inhibit the enzymatic activity of the fatty acid amide hydrolase enzyme.
The assay of FAAH (EC 3.5.1.4) was performed by measuring the release of [1-^14C]AA from [1-^14C]AnNH (52 mCi/mmol), using RP-HPLC. Also [^3H]AnNH (205 Ci/mmol) could be used as substrate, measuring the release of [^3H]AA under the same experimental conditions described below for [1-^14C]AnNH. Compounds of the invention, at various concentrations, were added in 200 μl hydrolase assay buffer (50 mM Tris-HCl, pH 9.0), in 2-ml Eppendorf tubes, 20 min before adding [1-^14C]AnNH2, up to a concentration of 10 μM. The reaction was initiated by the addition of mouse brain homogenate (40 μg), and after incubation at 37° C. for 15 min it was stopped by the addition of 800 μl ice-cold methanol/chloroform (2:1, v/v) with vortexing. This mixture was allowed to stand at room temperature for 30 min, then 240 μl chloroform and 240 μl water were added with vortexing. After 10 min at room temperature, the mixture was centrifuged at 3000 g for 5 min, the upper aqueous layer was removed by suction and the lower organic phase was dried by spinning the samples in a DNA MINI speedvac (Heto-Holten, Denmark), at 100 mbar and 30° C. for 30 min. The residue was dissolved into 50 μl methanol and subjected to RP-HPLC analysis for AA quantitation, as detailed below. FAAH specific activity was expressed as pmol AA released/min/mg protein. Kinetic studies were performed by Lineweaver-Burk analysis, using [1-^14C]AnNH, [1-^14C]ODNHEtOH, or [1-^14C]ODNH2 in the concentration range 0-12 μM. Fitting of the experimental points by a linear regression programme (Kaleidagraph 3.0) yielded straight lines with r values >0.97.

[2] = test system: mechanical hyperalgesia; assay: Paw withdrawal test for mechanical hyperalgesia (Randall-Selitto analgesimeter); assay type: in vivo; conditions: rat; for analgesic activity (nociceptive threshold, paw withdrawal): acute oral treatment, 30 mg/kg (FIG. 1)
Method: The paw withdrawal test was used to assess mechanical hyperalgesia. The nociceptive threshold, expressed in grams, was measured by applying increasing pressure to the left and right hind paws using a Randall-Selitto analgesimeter (Ugo Basile, Varese, Italy). The parameter used to quantify the nociceptive threshold was defined as the pressure (grams) at which the rat withdrew its paw. Rats were habituated to the testing procedures and handling by the investigator in the week prior to the experiment.
Dose response experiments at 10, 30 and 100 mg/kg were also conducted with ST4068, ST3911 and ST3913.

[3] = target: CB1R (Homo sapiens, UniProt P21554); assay: Selectivity profile: CB1R; assay type: binding; conditions: tested at a multiple of the FAAH IC50
Method: (§1) The compounds of the present invention were also evaluated with regard to their selectivity profile against the following targets: AMT, NAPE-PLD, MAGL, DAGL, CB1/CB2 and TRPV1 according to the procedures described in Maccarrone M., et al., J. Biol. Chem., 2000, 275, 13484, Fezza F., et al., Anal Biochem., 2005, 339, 113, Dinh T. P., et al., 2002, Proc. Natl. Acad. Sci. 99, 10819, Bisogno T., et al., 2003, J. Cell Biol., 163, 463, Maccarrone M., et al., J. Biol. Chem., 2000, 275, 31938, Ross R. A., et al., Br. J. Pharmacol., 2001, 132, 631.

[4] = target: NAPE-PLD (Homo sapiens, UniProt Q6IQ20); assay: Selectivity profile: NAPE-PLD; assay type: biochemical; conditions: tested at a multiple of the FAAH IC50
Method: as §1

[5] = target: T2, MAGL (Homo sapiens, UniProt Q99685); assay: Selectivity profile: MAGL; assay type: biochemical; conditions: tested at a multiple of the FAAH IC50
T2 sequence (Q99685 1-303): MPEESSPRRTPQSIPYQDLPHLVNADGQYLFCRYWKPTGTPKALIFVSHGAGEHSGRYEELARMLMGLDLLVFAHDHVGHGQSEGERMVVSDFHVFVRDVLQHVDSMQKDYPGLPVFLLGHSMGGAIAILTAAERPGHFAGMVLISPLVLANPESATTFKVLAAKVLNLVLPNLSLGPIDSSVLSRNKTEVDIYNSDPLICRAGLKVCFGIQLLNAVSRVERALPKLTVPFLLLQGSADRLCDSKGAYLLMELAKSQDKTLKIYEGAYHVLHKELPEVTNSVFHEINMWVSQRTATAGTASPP
Method: as §1

[6] = target: CB2R (Homo sapiens, UniProt P34972); assay: Selectivity profile: CB2R; assay type: binding; conditions: tested at a multiple of the FAAH IC50
Method: as §1

[7] = test system: AMT; assay: Selectivity profile: AMT; assay type: cell-based
Method: as §1

[8] = test system: TRPV1; assay: Selectivity profile: TRPV1; assay type: binding; conditions: tested at a multiple of the FAAH IC50
Method: as §1

[9] = test system: DAGL; assay: Selectivity profile: DAGL; assay type: biochemical; conditions: tested at a multiple of the FAAH IC50
Method: as §1

[10] = 100 mg/kg, compared with 30 mg/kg (FIGS. 2, 3 and 4)

Chain of CB1R (P21554 whole entry): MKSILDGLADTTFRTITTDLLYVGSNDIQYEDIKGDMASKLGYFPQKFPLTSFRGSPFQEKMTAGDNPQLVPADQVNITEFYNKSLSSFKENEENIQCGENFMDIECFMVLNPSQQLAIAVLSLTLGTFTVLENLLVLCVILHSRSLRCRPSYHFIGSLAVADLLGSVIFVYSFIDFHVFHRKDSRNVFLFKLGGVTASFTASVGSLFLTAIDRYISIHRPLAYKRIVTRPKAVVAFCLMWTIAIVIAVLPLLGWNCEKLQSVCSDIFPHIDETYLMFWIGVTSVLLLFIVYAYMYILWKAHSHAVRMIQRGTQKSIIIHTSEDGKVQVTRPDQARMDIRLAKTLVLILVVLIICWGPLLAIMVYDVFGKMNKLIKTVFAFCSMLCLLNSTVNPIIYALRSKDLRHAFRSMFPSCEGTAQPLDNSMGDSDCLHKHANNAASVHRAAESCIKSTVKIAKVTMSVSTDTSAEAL
Chain of CB2R (P34972 whole entry): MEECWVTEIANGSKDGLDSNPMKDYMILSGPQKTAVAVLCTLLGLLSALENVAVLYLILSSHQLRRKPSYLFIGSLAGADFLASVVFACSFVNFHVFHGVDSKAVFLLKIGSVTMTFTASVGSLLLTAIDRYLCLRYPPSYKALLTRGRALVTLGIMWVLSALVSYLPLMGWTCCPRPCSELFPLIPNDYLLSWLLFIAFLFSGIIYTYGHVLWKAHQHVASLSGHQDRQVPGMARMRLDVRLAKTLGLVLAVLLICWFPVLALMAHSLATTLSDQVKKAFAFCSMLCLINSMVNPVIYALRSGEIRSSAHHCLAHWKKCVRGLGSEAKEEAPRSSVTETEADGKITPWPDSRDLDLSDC
Chain of NAPE-PLD (Q6IQ20 whole entry, species assumed): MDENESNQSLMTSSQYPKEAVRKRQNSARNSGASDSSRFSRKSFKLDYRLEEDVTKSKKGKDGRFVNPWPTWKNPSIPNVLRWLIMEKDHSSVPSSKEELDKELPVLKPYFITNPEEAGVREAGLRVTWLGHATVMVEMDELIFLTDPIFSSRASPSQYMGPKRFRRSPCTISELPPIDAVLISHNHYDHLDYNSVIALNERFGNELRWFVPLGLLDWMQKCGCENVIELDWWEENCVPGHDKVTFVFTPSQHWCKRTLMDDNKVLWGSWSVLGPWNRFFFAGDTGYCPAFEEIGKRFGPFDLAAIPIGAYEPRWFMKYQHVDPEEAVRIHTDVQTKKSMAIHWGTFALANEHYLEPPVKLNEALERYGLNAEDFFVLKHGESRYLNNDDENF

Structure (SMILES): CCCCNC(=O)Oc1cccc(-n2ccc(C(=O)OCCCCCCc3ccccc3)c2)c1 [Example 12, 1-(3-butylcarbamoyloxy-phenyl)-1H-pyrrole-3-carboxylic acid 6-phenyl-hexyl ester]
- IC50 [1]: 100 to 500 nM

Structure (SMILES): C#CCCCCCCCCCNC(=O)Oc1cccc(-n2ccc(C(N)=O)c2)c1 [Example 2, undec-10-ynyl-carbamic acid 3-(3-carbamoyl-pyrrol-1-yl)-phenyl ester]
- IC50 [1]: < 10 nM
- Ki [1]: < 10 nM
- analgesic activity, dose response ([2]; 30 mg/kg (FIGS. 2, 3 and 4)): did exert analgesic activity
- analgesic activity, dose response [2, 10]: higher effect
- analgesic activity (nociceptive threshold, paw withdrawal) [2]: significant analgesic activity

Structure (SMILES): Cc1cc(C(N)=O)c(-c2cccc(OC(=O)NCCCCCCc3ccccc3)c2)s1 [Example 7, (6-phenyl-hexyl)-carbamic acid 3-(3-carbamoyl-5-methyl-thiophen-2-yl)-phenyl ester]
- inhibitory activity on CB1R [3]: −−−− (1000 times [IC50] with an inhibitory activity on the target <60%)
- IC50 [1]: < 10 nM
- Ki [1]: < 10 nM
- inhibitory activity on NAPE-PLD [4]: −−−− (1000 times [IC50] with an inhibitory activity on the target <60%)
- inhibitory activity on MAGL [5]: −−−− (1000 times [IC50] with an inhibitory activity on the target <60%)
- inhibitory activity on CB2R [6]: −−−− (1000 times [IC50] with an inhibitory activity on the target <60%)
- AMT, % @ 1 μM [7]: 60% @ 1 μM

Structure (SMILES): Cc1cc(C(N)=O)c(-c2cccc(OC(=O)NC3CCCCC3)c2)o1 [Example 13, cyclohexyl-carbamic acid 3-(3-carbamoyl-5-methyl-furan-2-yl)-phenyl ester]
- IC50 [1]: 100 to 500 nM

Structure (SMILES): C#CCCCCCCCCCOC(=O)c1ccn(-c2cccc(OC(=O)NCCCC)c2)c1 [Example 11, 1-(3-butylcarbamoyloxy-phenyl)-1H-pyrrole-3-carboxylic acid undec-10-ynyl ester]
- IC50 [1]: 100 to 500 nM

Structure (SMILES): Cc1oc(-c2cccc(OC(=O)NCCCCCCc3ccccc3)c2)cc1C(N)=O [Example 9, (6-phenyl-hexyl)-carbamic acid 3-(4-carbamoyl-5-methyl-furan-2-yl)-phenyl ester]
- inhibitory activity on CB1R [3]: −−−− (1000 times [IC50] with an inhibitory activity on the target <60%)
- IC50 [1]: 10 to 100 nM
- Ki [1]: < 10 nM
- inhibitory activity on NAPE-PLD [4]: −−−− (1000 times [IC50] with an inhibitory activity on the target <60%)
- inhibitory activity on TRPV1 [8]: −−−− (1000 times [IC50] with an inhibitory activity on the target <60%)
- inhibitory activity on MAGL [5]: −−−− (1000 times [IC50] with an inhibitory activity on the target <60%)
- inhibitory activity on CB2R [6]: −−−− (1000 times [IC50] with an inhibitory activity on the target <60%)
- AMT, % @ 1 μM [7]: 80% @ 1 μM
- inhibitory activity on DAGL [9]: −−−− (1000 times [IC50] with an inhibitory activity on the target <60%)

Structure (SMILES): Cc1cc(C(N)=O)c(-c2cccc(OC(=O)NC3CCCCC3)c2)s1 [Example 14, cyclohexyl-carbamic acid 3-(3-carbamoyl-5-methyl-thiophen-2-yl)-phenylester]
- IC50 [1]: 100 to 500 nM

Structure (SMILES): CCCCNC(=O)Oc1cccc(-c2oc(C)cc2C(=O)OCC)c1 [Example 10, 2-(3-butylcarbamoyloxy-phenyl)-5-methyl-furan-3-carboxylic acid ethyl ester]
- IC50 [1]: 100 to 500 nM

Structure (SMILES): Cc1cc(C(N)=O)c(-c2cccc(OC(=O)NCCCCCCc3ccccc3)c2)o1 [Example 6, (6-phenyl-hexyl)-carbamic acid 3-(3-carbamoyl-5-methyl-furan-2-yl)-phenyl ester]
- IC50 [1]: < 10 nM
- Ki [1]: < 10 nM
- analgesic activity, dose response ([2]; 30 mg/kg (FIGS. 2, 3 and 4)): did exert analgesic activity
- analgesic activity, dose response [2, 10]: higher effect
- analgesic activity (nociceptive threshold, paw withdrawal) [2]: significant analgesic activity

Structure (SMILES): NC(=O)c1ccn(-c2cccc(OC(=O)NCCCCCCc3ccccc3)c2)c1 [Example 4, (6-phenyl-hexyl)-carbamic acid 3-(3-carbamoyl-pyrrol-1-yl)-phenyl ester]
- inhibitory activity on CB1R [3]: −−−− (1000 times [IC50] with an inhibitory activity on the target <60%)
- IC50 [1]: < 10 nM
- Ki [1]: < 10 nM
- inhibitory activity on NAPE-PLD [4]: −−−− (1000 times [IC50] with an inhibitory activity on the target <60%)
- inhibitory activity on TRPV1 [8]: −−−− (1000 times [IC50] with an inhibitory activity on the target <60%)
- analgesic activity, dose response ([2]; 30 mg/kg (FIGS. 2, 3 and 4)): did exert analgesic activity
- analgesic activity, dose response [2, 10]: higher effect
- analgesic activity (nociceptive threshold, paw withdrawal) [2]: significant analgesic activity
- inhibitory activity on MAGL [5]: −−−− (1000 times [IC50] with an inhibitory activity on the target <60%)
- inhibitory activity on CB2R [6]: −−−− (1000 times [IC50] with an inhibitory activity on the target <60%)
- AMT, % @ 1 μM [7]: 80% @ 1 μM
- inhibitory activity on DAGL [9]: −−−− (1000 times [IC50] with an inhibitory activity on the target <60%)

Structure (SMILES): CCCCNC(=O)Oc1cccc(-n2ccc(C(N)=O)c2)c1 [Example 1, butyl-carbamic acid 3-(3-carbamoyl-pyrrol-1-yl)-phenyl ester]
- IC50 [1]: 100 to 500 nM
- Ki [1]: 10 to 100 nM

Structure (SMILES): NC(=O)c1ccn(-c2cccc(OC(=O)NC3CCCCC3)c2)c1 [Example 3, cyclohexyl-carbamic acid 3-(3-carbamoyl-pyrrol-1-yl)-phenyl ester]
- IC50 [1]: 100 to 500 nM
- Ki [1]: 10 to 100 nM

Structure (SMILES): CCCCNC(=O)Oc1cccc(-c2oc(C)cc2C(N)=O)c1 [Example 5, butyl-carbamic acid 3-(3-carbamoyl-5-methyl-furan-2-yl)-phenyl ester]
- IC50 [1]: 500 to 5000 nM
- Ki [1]: 100 to 500 nM

Structure (SMILES): Cc1oc(-c2cccc(OC(=O)NC3CCCCC3)c2)cc1C(N)=O [Example 8, cyclohexyl-carbamic acid 3-(4-carbamoyl-5-methyl-furan-2-yl)-phenyl ester]
- IC50 [1]: 100 to 500 nM
